Test results published in article PMC13070491, “Single-nucleus transcriptomics, pharmacokinetics, and pharmacodynamics of CDK4/6 and mTOR inhibition in a Phase 0/1 trial of recurrent high-grade glioma” (Neuro-Oncology, 2025).
Several values for one entry are separate records, joined by “and”; a condition that tells them apart may be missing. Identical values can stand only once.

Assay: Plasma pharmacokinetic parameters (LC-MS/MS)
Conditions: for AUC(0-t): AUClast; for AUC(0-t) / Cmax / Tmax / AUClast / CL/F / T1/2: total everolimus plasma; for half-life: T1/2, total everolimus plasma
Procedure: Pharmacokinetic evaluation was conducted as previously described[8] using a validated liquid chromatography with tandem mass spectrometry (LC-MS/MS) method.[16] […] CSF samples were intraoperatively collected.

[1] = human, plasma, oral, 2.5 mg, mean
[2] = human, plasma, oral, 2.5 mg, median
[3] = human, plasma, oral, 5 mg, mean
[4] = human, plasma, oral, 5 mg, median
[5] = human, plasma, oral, 10 mg, mean
[6] = human, plasma, oral, 10 mg, median
[7] = human, plasma, oral, 50 mg, mean
[8] = human, plasma, oral, 50 mg, median
[9] = human, plasma, oral, 60 mg, mean
[10] = human, plasma, oral, 60 mg, median
[11] = human, plasma, oral, 70 mg, individual patients
[12] = human, plasma, oral, 70 mg, mean
[13] = human, plasma, oral, 70 mg, median
[14] = dose 2.5 mg, individual patients
[15] = dose 10 mg, individual patients
[16] = dose 50 mg, individual patients, listed as everolimus
[17] = dose 60 mg, individual patients
[18] = dose 70 mg, individual patients

In the case of CO[C@H]1C[C@@H]2CC[C@@H](C)[C@@](O)(O2)C(=O)C(=O)N2CCCC[C@H]2C(=O)O[C@H]([C@H](C)C[C@@H]2CC[C@@H](OCCO)[C@H](OC)C2)CC(=O)[C@H](C)/C=C(\C)[C@@H](O)[C@@H](OC)C(=O)[C@H](C)C[C@H](C)/C=C/C=C/C=C/1C [Everolimus, everolimus], the AUC(0-t) [1] was 0.31 µM·h, the AUC(0-t) [2] was 0.23 µM·h and the Cmax (human, plasma, oral, 2.5 mg, Cmax, mean) was 33.7 nM. For the same compound, the half-life [1] was 21.6 h, the half-life [2] was 17.2 h and the Tmax (human, plasma, oral, 2.5 mg, Tmax, mean) was 1.86 h. For the same compound, the AUC(0-t) (human, plasma, oral, 5 mg, individual patients) was 0.55 µM·h, the AUC(0-t) [3] was 0.43 µM·h and the AUC(0-t) [4] was 0.5 µM·h. It also gave a Cmax (human, plasma, oral, 5 mg, Cmax, mean) of 34.1 nM, a half-life [3] of 19.9 h and a half-life [4] of 18.8 h. For the same compound, the Tmax (human, plasma, oral, 5 mg, Tmax, mean) was 2.69 h, the Tmax (human, plasma, oral, 5 mg, Tmax, median) was 2.03 h and the AUC(0-t) [5] was 0.9 µM·h. The AUC(0-t) [6] was 0.82 µM·h, the Cmax (human, plasma, oral, 10 mg, Cmax, individual patients) was 80 nM and the half-life (human, plasma, oral, 10 mg, individual patients) was 22.1 h. The half-life [5] was 21.8 h, the half-life [6] was 21.8 h and the Tmax (human, plasma, oral, 10 mg, Tmax, mean) was 3.23 h. For the same compound, the Tmax (human, plasma, oral, 10 mg, Tmax, median) was 3.92 h, the AUC(0-t) (human, plasma, oral, 50 mg, individual patients) was 1.35 µM·h and the AUC(0-t) [7] was 1.59 µM·h. It also gave an AUC(0-t) [8] of 1.61 µM·h, a Cmax (human, plasma, oral, 50 mg, Cmax, individual patients) of 110 nM and a Cmax (human, plasma, oral, 50 mg, Cmax, mean) of 140 nM. For the same compound, the Cmax (human, plasma, oral, 50 mg, Cmax, median) was 130 nM, the half-life [7] was 29.3 h and the half-life [8] was 21.3 h. For the same compound, the Tmax (human, plasma, oral, 50 mg, Tmax, mean) was 1.31 h, the Tmax (human, plasma, oral, 50 mg, Tmax, median) was 1.12 h and the AUC(0-t) (human, plasma, oral, 60 mg, individual patients) was 1.93 µM·h. For the same compound, the AUC(0-t) [9] was 1.88 µM·h, the AUC(0-t) [10] was 1.88 µM·h and the Cmax (human, plasma, oral, 60 mg, Cmax, individual patients) was 190 nM. For the same compound, the Cmax (human, plasma, oral, 60 mg, Cmax, mean) was 190 nM, the Cmax (human, plasma, oral, 60 mg, Cmax, median) was 190 nM and the half-life [9] was 19.7 h. For the same compound, the half-life [10] was 19.7 h, the AUC(0-t) [11] was 1.24 µM·h and the AUC(0-t) [12] was 1.29 µM·h. It also gave an AUC(0-t) [13] of 1.27 µM·h, a Cmax (human, plasma, oral, 70 mg, Cmax, individual patients) of 120 nM and a Cmax (human, plasma, oral, 70 mg, Cmax, mean) of 120 nM. It also gave a Cmax (human, plasma, oral, 70 mg, Cmax, median) of 120 nM, a half-life [11] of 18.7 h and a half-life [12] of 19.4 h. For the same compound, the half-life [13] was 19.4 h, the Tmax (human, plasma, oral, 70 mg, Tmax, mean) was 4.25 h and the Tmax (human, plasma, oral, 70 mg, Tmax, median) was 1.93 h. For the same compound, the AUClast [14] was 0.41 µM·h and 0.68 µM·h and 0.46 µM·h and 0.32 µM·h and 0.19 µM·h and 0.16 µM·h and 0.14 µM·h, the CL/F [14] was 6.33 L/h and 3.85 L/h and 5.73 L/h and 8.25 L/h and 11.50 L/h and 13.68 L/h and 16.29 L/h and 18.14 L/h and 15.94 L/h and the Tmax [14] was 0.93 h and 1.00 h and 1.88 h and 2.05 h and 1.05 h and 3.97 h and 1.92 h and 1.95 h and 2.02 h. For the same compound, the CL/F (dose 2.5 mg, mean) was 11.08 L/h, the CL/F (dose 2.5 mg, median) was 11.50 L/h and the Cmax (dose 2.5 mg, median) was 30 nM. For the same compound, the Tmax (dose 2.5 mg, median) was 1.92 h, the AUClast (dose 5 mg, individual patients) was 0.22 µM·h and the CL/F (dose 5 mg, individual patients) was 9.45 L/h and 23.36 L/h and 10.39 L/h. For the same compound, the Cmax (dose 5 mg, individual patients) was 45.2 nM and 21.1 nM, the T1/2 (dose 5 mg, individual patients) was 28.35 h and 18.84 h and 12.56 h and the Tmax (dose 5 mg, individual patients) was 1.95 h and 4.10 h. The CL/F (dose 5 mg, mean) was 14.40 L/h, the CL/F (dose 5 mg, median) was 10.39 L/h and the Cmax (dose 5 mg, median) was 36.2 nM. The AUClast [15] was 0.49 µM·h and 0.63 µM·h and 1.02 µM·h and 1.48 µM·h, the CL/F [15] was 21.35 L/h and 16.51 L/h and 10.28 L/h and 7.07 L/h and the Cmax [15] was 120 nM. The T1/2 [15] was 21.52 h, the Tmax [15] was 4.03 h and 1.05 h and 3.83 h and 4.00 h and the CL/F (dose 10 mg, mean) was 13.80 L/h. For the same compound, the Cmax (dose 10 mg, mean) was 90 nM, the CL/F (dose 10 mg, median) was 13.40 L/h and the Cmax (dose 10 mg, median) was 84.6 nM. The Cmax (dose 50 mg, individual patients) was 130 nM, the AUClast [16] was 1.87 µM·h and 1.42 µM·h and 1.72 µM·h and the CL/F [16] was 21.38 L/h and 14.80 L/h and 15.39 L/h and 21.73 L/h and 8.55 L/h. The Cmax [16] was 130 nM and 160 nM and 170 nM, the Tmax [16] was 1.87 h and 1.78 h and 0.83 h and 0.95 h and the CL/F (dose 50 mg, mean) was 16.37 L/h. For the same compound, the CL/F (dose 50 mg, median) was 15.39 L/h, the AUClast [17] was 1.83 µM·h and the CL/F [17] was 23.69 L/h and 16.85 L/h. For the same compound, the T1/2 [17] was 12.25 h and 27.10 h, the Tmax [17] was 1.00 h and the CL/F (dose 60 mg, mean) was 20.27 L/h. The Tmax (dose 60 mg, mean) was 1.00 h, the CL/F (dose 60 mg, median) was 20.27 L/h and the Tmax (dose 60 mg, median) was 1.00 h. The AUClast [18] was 1.36 µM·h, the CL/F [18] was 35.41 L/h and 33.84 L/h and the Cmax [18] was 90 nM. The T1/2 [18] was 20.18 h, the Tmax [18] was 9.75 h and 1.07 h and the CL/F (dose 70 mg, mean) was 34.62 L/h. The CL/F (dose 70 mg, median) was 34.62 L/h.
